Measured values reported in US9290555B2, “Reagents and methods for treating dental disease” (University of Washington Through its Center for …, priority 2011, dated 2016).
“Also recorded” adds a separate entry of the source.

What was measured:
Binding analysis via QCM = conditions: for Kd: binding to HAp, read-out: KD (dissociation constant); for binding affinity to HAp (in words): compared with ADP1, ADP2, ADP4, ADP7
Description: Calcium phosphate coated QCM electrodes were purchased commercially. (Q-Sense, Sweden) The diameter of the crystals and electrodes were 8.8 mm and 5.0 mm, respectively. […] A 12 V DC current was applied to the oscillator circuit to drive the crystal, and the frequency was measured with a Hewlett-Packard 53131A frequency counter sampling at 225 Hz (Universal Counter, Agilent Technologies). After the crystal was mounted in the cell, they were cleaned and dried with high-purity nitrogen gas and used immediately. To establish a stable baseline, a sufficient amount of buffer solution was introduced into the cell before adding the peptide. The frequency change of the crystal in pure buffer solution was recorded for 30 to 60 minutes. After this, the desired amount of ADPs was introduced into the cell and the frequency change was recorded continuously.
The dissociation constants (KD) of the peptides were determined. The KD is an equilibrium constant that represents the concentration necessary to achieve 50% surface coverage. […] (FIG. 2a, Table 1)

[1] = Microstructural and crystallographic analysis of the synthesized minerals (SEM, TEM, XRD); conditions: for mineral morphology: SEM/TEM of minerals formed in solution with peptide; for crystal phase of the mineral formed (XRD): XRD of minerals formed in solution; for amount of radiating crystalline blade-like particles emanating from the spherulites: compared to weak binders and no peptide control
Description: (§1) For the mineralization experiments, mineralization solutions containing 24 mM Ca^2+ and 14.4 mM β-GP and 0.4 mM peptide was prepared in 25 mM Tris-HCl buffer (pH 7.4). A mineralization solution containing no peptide was prepared as the negative control. Mineralization reactions were commenced by adding bacterial AP to the solution at a final concentration of 1.4×10^−6 g/mL. Subsequent mineral formation kinetics was monitored by continuous measuring of absorbance at 820 nm wave length using a Tecan Safire microplate reader (Tecan Trading AG, Switzerland) as well as by periodic assays of calcium ions throughout the reaction. For periodic assays of calcium and phosphate, 10 μL of the reaction solution was collected at 0.25-, 0.5-, 1- and 1.5-hr. The calcium concentration in the solutions was determined using QuantiChrome Calcium Assay Kit (Bioassays, U.S.A.). All mineralization reactions were carried out at 37° C. Samples for electron microscopy analysis were prepared by placing a 10 μL aliquot from the reaction solution onto a carbon coated TEM grid. After 1 min, liquid on the TEM grid was carefully wicked away and the grids were vacuum-dried for 5 min. The dried grids were stored in a desiccated container until analyzed. SEM imaging was performed at 10 kV using a JSM 7000F (JEOL, Japan) SEM in secondary electron imaging mode. TEM imaging and electron diffraction analysis were performed using an EMS 420T TEM (FEI, Inc., USA; formerly Philips, The Netherlands) operated at 120 kV.

[2] = In vitro solution biomineralization, alkaline phosphatase based mineralization model; assay type: biochemical; conditions: for mineralization trend (kinetics): 0.4 mM peptide, 24 mM Ca2+, 14.4 mM β-GP, 37° C., initial 90 minutes; for available free Ca2+ consumed: at the end of the 90 minutes
Description: An alkaline phosphatase (AP) based mineralization model was used as described before to investigate the mineralization behaviors of the peptides (22) (see Supporting Information for details). […]
as §1

[3] = Ex vivo re-mineralization of tooth root; design: species or system human
Description: The cementum-root stock blocks were prepared from single rooted, extracted adult teeth collected at the University of Washington Dental School clinics. No individual identifiers were used and the use of such material complied with the Institutional Review Board guidelines. The teeth were kept in 70% ethanol solution at 4° C. until the specimens were prepared. Cylindrical blocks of 4 mm diameter were cut from the acellular cementum, close to the cementoenamel junction using a trephine bur. The teeth were kept immersed in 70% ethanol-phosphate buffered saline (PBS) during the cutting to prevent heat damage due to friction. The cut cylindrical blocks were cleaned of contaminating material using PBS and demineralized with 35% phosphoric acid gel for 10 seconds. The specimens were stored in 70% ethanol-PBS solution at 4° C. until used.
Prior to coating the specimens with the peptide, the previously cut cylindrical blocks were rehydrated and equilibrated for 2 hours in 24 mM Tris-HCl buffer, pH 7.4. The lyophilized ADP was dissolved in 24 mM Tris-HCl buffer, pH 7.4 to a final concentration of 0.4 mM. A 50 μl drop of the ADP solution was dropped on top of the specimens and left on the specimen for 10 minutes at room temperature in a water saturated chamber to prevent evaporation. Control specimens were identically prepared only by dropping 50 μl of buffer alone. At the end of 10 minutes, the samples were rinsed twice with deionized water. Fluorescent microscopy analysis was performed with fluorescein isothiocyanate-labeled ADP (fADP).
Solutions of 9.6 mM CaCl2 and 5.6 mM (PO4)^−3, a mixture of NaH2PO4—H2O and Na2HPO4-7H20, were prepared in 24 mM Tris-HCl buffer, pH 7.4. The peptide coated and non-coated control specimens were placed in 300 μl of Ca^+2 solution and an equal volume of (PO4)^−3 solution was added to achieve a final concentration of 4.8 mM of Ca^+2 and 2.8 mM of (PO4)^−3. The specimens were incubated in the mineralization solution for 2 hours at 37° C. in a water saturated atmosphere, removed from the mineralization solution and rinsed with 24 mM Tris-HCl buffer, pH 7.4. […]

Molecule | Kd (Binding analysis via QCM) [nM] | binding affinity to HAp (in words) (Binding analysis via QCM) | mineralization trend (kinetics) [2] | available free Ca2+ consumed [2] | mineral morphology [1] | crystal phase of the mineral formed (XRD) [1] | amount of radiating crystalline blade-like particles emanating from the spherulites [1] | Ca/P ratio ([3]; EDX spectra of the cementomimetic layer) | thickness of mineral layer ([3]; SEM and TEM cross-section) | elemental composition by EDS ([3]; peptide coated samples after 2 hours) | crystal phase of the mineral formed (XRD) ([1]; listed as amelogenin)
WPATDKTKREEVD [ADP3] | 6400 | lower |  |  | spherulitic particles |  |  |  |  |  | 
LPPLFSMPLSPILPELPLEAWPAT [ADP6] | 6250 | lower |  |  | spherulitic particles |  |  |  |  |  | 
PGYINLSYEKSHSQAINTDRTA [ADP5] | 50000 | lower | fast mineralization trend | more than half | much smaller spherulites |  |  | 1.67 | 10-15 μm | substantial Ca and P peaks | 
rM180: recombinant mouse 180 amino acid long amelogenin (protein, UniProt P63277 17-210, looked up) Amelogenin, X isoform: MPLPPHPGSPGYINLSYEKSHSQAINTDRTALVLTPLKWYQSMIRQPYPSYGYEPMGGWLHHQIIPVLSQQHPPSHTLQPHHHLPVVPAQQPVAPQQPMMPVPGHHSMTPTQHHQPNIPPSAQQPFQQPFQPQAIPPQSHQPMQPQSPLHPMQPLAPQPPLPPLFSMQPLSPILPELPLEAWPATDKTKREEVD |  |  | fast mineralization trend | more than half | Needle like nano-crystals | crystalline HAp |  |  |  |  | characteristic peaks belonging to the HAp crystal structure

Further molecules by falling Kd (Binding analysis via QCM), results first:

Kd (Binding analysis via QCM) [nM] | binding affinity to HAp (in words) (Binding analysis via QCM) | mineralization trend (kinetics) [2] | available free Ca2+ consumed [2] | Molecule | mineral morphology [1] | crystal phase of the mineral formed (XRD) [1] | amount of radiating crystalline blade-like particles emanating from the spherulites [1] | Ca/P ratio ([3]; EDX spectra of the cementomimetic layer) | thickness of mineral layer ([3]; SEM and TEM cross-section) | elemental composition by EDS ([3]; peptide coated samples after 2 hours) | crystal phase of the mineral formed (XRD) ([1]; listed as amelogenin)
3140 | lower |  |  | PAQQPVAPQQPMMP [ADP8] | spherulitic particles |  |  |  |  |  | 
1610 |  |  |  | VPGHHSMTPTQH [ADP2] | spherulitic particles | none of the other strong binders | slightly higher |  |  |  | 
1430 |  |  |  | HPPSHTLQPHHHLPVV [ADP4] | spherulitic particles | none of the other strong binders | slightly higher |  |  |  | 
1400 |  |  |  | HTLQPHHHLPVV [ADP1] | spherulitic particles | none of the other strong binders | slightly higher |  |  |  | 
1150 |  | slow mineralization trend |  | HPPSHTLQPHHHLPVVPAQQPVAPQQPMMPVPGHHSMTPTQH [ADP7] | Needle like nano-crystals | crystalline HAp; also recorded: HA precipitation was only observed in ADP7; also recorded: characteristic peaks belonging to the HAp crystal structure |  |  |  |  | 
